Results reported in patent US20090029972A1, “Dibenzodiazepinone Analogues, Processes for Their Production and Their Use as Pharmaceuticals” (Ecopia BioSciences Inc, priority 2004, published 2009).
Entries after “also recorded” stand apart in the source; their conditions may differ.

Key:
C6 glioblastoma [1] = test: In vivo efficacy in glioma model, first series (treatment 24 hrs after inoculation); design: species or system Mus musculus nude mice; settings: all treated groups (10-30 mg/kg i.p.), Anova and Dunnett's test
Experimental: The aim of this study was to test whether Compounds 1 and 2 prevent or delay tumor growth in C6 glioblastoma cell-bearing mice, and to determine an effective dosage regimen.
Animal experiments were performed according to ethical guidelines of animal experimentation (Charte du comité d′éthique du CNRS, juillet 2003) and the English guidelines for the welfare of animals in experimental neoplasia (WORKMAN, P., […], P., BALKWILL, F., et al. (1998). United Kingdom Coordinating Committee on Cancer Research (UKCCCR) Guidelines for the welfare of animals in experimental neoplasia (Second Edition, July 1997; British Journal of Cancer, 77:1-10). Any dead or apparently sick mice were promptly removed and replaced with healthy mice. Sick mice were euthanized upon removal from the cage. […]
(§1) Tumor Cell Line: The C6 cell line was cloned from a rat glial tumor induced by N-nitrosomethyurea (NMU) according to Premont et al. (Premont J, Benda P, Jard S., [3H] norepinephrine binding by rat glial cells in culture. Lack of correlation between binding and adenylate cyclase activation. Biochim Biophys Acta. 1975 Feb. 13; 381(2):368-76.) after series of alternate culture and animal passages. […] The cells were counted in a hemocytometer and their viability assessed by 0.25% trypan blue exclusion. […]

in vivo = settings: CD-1 nu/nu, mouse, iv
[2] = Pharmacokinetic profiles, plasma; format: in vivo, female Crl: CD1 mice; settings: female, Crl: CD1, mouse, ip, 30 mg/kg
Experimental: Compounds 1 and 2 were separately dissolved in ethanol (5%), Polysorbate 80 (15%), PEG 400 (5%) and dextrose (5%) at a final concentration of 6 mg/ml (for all parenteral administration routes). For oral […], Compound 1 was solubilized in Cremophor® EL/Ethanol (50%:50%) at a final concentration of 6 mg/ml. Prior to dosing, animals (female Crl: CD1 mice; 6 weeks of age, 22-24 g) were weighed, randomly selected and assigned to the different treatment groups. Compound 1 was administered by the intravenous (iv), subcutaneous (sc), intraperitoneal (ip), or oral (po) route to the assigned animals. Compound 2 was administered by the intravenous (iv), or intraperitoneal (ip) route to the assigned animals. […] Samples were analysed by LC/MS/MS.
Plasma values of Compounds 1 and 2 falling below the limit of quantitation (LOQ) were set to zero.
The following pharmacokinetic parameters were calculated: area under the plasma concentration versus time curve from time zero to the last measurable concentration time point (AUC0-t), area under the plasma concentration versus time curve extrapolated to infinity (AUCinf), maximum observed plasma concentration (Cmax), time of maximum plasma concentration (tmax), apparent first-order terminal elimination rate constant (kel), apparent first-order terminal elimination half-life will be calculated as 0.693/kel (t1/2). […]

C6 glioblastoma [3] = test: In vivo efficacy in glioma model, second series (treatment from day 10); design: species or system Mus musculus nude mice
From the text: The aim of this study was to test whether Compounds 1 and 2 prevent or delay tumor growth in C6 glioblastoma cell-bearing mice, and to determine an effective dosage regimen. […]
as §1
In a second series of experiments, treatment started at day 10 following inoculation of C6 cells when tumors became palpable (around 100 to 200 mm^3). […] Tumor volume was measured every second day until the end of the treatment using callipers. […]

[4] = for several days post-injection, ip and iv
[5] = tested on: HT-29, SF268, MDA-MB-231 and PC-3 cell lines; test: In vitro cytotoxic activity, four cell lines together (average, comparison); format: cell-based; settings: for anticancer activity compared with Compound 1: Table 12 cell lines
Experimental: (§2) Compounds were dissolved at 10 mM in DMSO. Dilution in vehicle to concentrations of 30, 10, 3, 1 and 0.3 μM were prepared immediately before assays. Depending on the cell line's growth characteristics, 4000-10000 cells were plated in two 96-wells pates (day 0) and incubated for 16 hours. The following day, propidium iodide was added to one of the two plates and fluorescence measured (Tz). Test compounds were added to the second plate, as well as vehicle control, and cells further incubated for 96 hours. Each compound was tested at each concentration and in triplicates. The equivalent cell number was determined after adding propidium iodide by measuring the signal by fluorescence (C for control).

SF268 (CNS) = test: In vitro cytotoxic activity GI50, method (a), SF-268; format: cell-based; settings: Homo sapiens, 96 hours incubation, propidium iodide
Experimental: as §2

[6] = tested on: HT-29 (colorectal carcinoma); test: In vitro cytotoxic activity GI50, method (a), HT-29; format: cell-based; settings: Homo sapiens, 96 hours incubation, propidium iodide
Experimental: as §2

[7] = tested on: PC-3 (prostate adenocarcinoma); test: In vitro cytotoxic activity GI50, method (a), PC-3; format: cell-based; settings: 96 hours incubation, propidium iodide
Experimental: as §2

[8] = tested on: MDA-MB-231 (mammary gland adenocarcinoma); test: In vitro cytotoxic activity GI50, method (a), MDA-MB-231; format: cell-based; settings: Homo sapiens, 96 hours incubation, propidium iodide
Experimental: as §2

CC(C)=CCC/C(C)=C/CC/C(C)=C/CN1C(=O)c2cccc(O)c2Nc2c(O)cc(O)cc21 [Compound 1, 10-farnesyl-4,6,8-trihydroxy-5,10-dihydrodibenzo[b,e][1,4]diazepin-11-one]
mean value of the tumor volume of treated groups vs saline group (C6 glioblastoma [1]): significantly reduced
MTD (in vivo): 150 mg/kg
AUC [2]: 9.5 µM·h
Histological analysis of tumor sections (C6 glioblastoma [3]; 20-30 mg/kg, FIG. 3): cell density of tumor treated with Compound 1 appears decreased; also recorded: cell density was decreased and the nuclei of remaining tumor cells appeared larger and pycnotic
mean value of the tumor volume of treated groups vs saline group (C6 glioblastoma [3]; all treated groups (20-30 mg/kg i.p.), Anova and Dunnett's test): significantly reduced

CC(C)=CCC/C(C)=C/CC/C(C)=C/CN1C(=O)c2cccc(O)c2N(C)c2c(O)cc(O)cc21 [Compound 2, 10-farnesyl-4,6,8-trihydroxy-5-methyl-5,10-dihydro-dibenzo[b,e][1,4]diazepin-11-one]
MTD (in vivo): ≥ 100 mg/kg
weight losses [4]: about 7%

CC(C)CCCC(C)CCCC(C)CCN1C(=O)c2cccc(O)c2Nc2c(O)cc(O)cc21 (stereo not drawn) [Compound 23, 10-(3,7,11-trimethyldodecyl)-4,6,8-trihydroxy-5,10-dihydro-dibenzo[b,e][1,4]diazepin-11-one]
anticancer activity compared with Compound 1 [5]: generally more active than Compound 1

CC(C)=CCC/C(C)=C/CC/C(C)=C/CN1C(=O)c2cccc(O)c2Nc2c1cc(O)c(Br)c2O [Compound 24, 10-(farnesyl)-7-bromo-4,6,8-trihydroxy-5,10-dihydro-dibenzo[b,e][1,4]diazepin-11-one]
anticancer activity compared with Compound 1 [5]: generally more active than Compound 1

CC(=O)Oc1cc(OC(C)=O)c2c(c1)N(C/C=C(\C)CC/C=C(\C)CCC=C(C)C)C(=O)c1cccc(OC(C)=O)c1N2 [Compound 25, 4,6,8-triacetoxy-10-farnesyl-5,10-dihydro-dibenzo[b,e][1,4]diazepin-11-one]
GI50 (SF268 (CNS)): 1.95 µM
GI50 [6]: 9.33 µM
anticancer activity compared with Compound 1 [5]: generally more active than Compound 1
GI50 ([5]; average of four cell lines, method (a)): 3.82 µM
GI50 [7]: 1.2 µM
GI50 [8]: 2.79 µM
